Measured values published in patent US10167299B2, “1-(3-aminopropyl) substituted cyclic amine compounds, preparation method therefor, and pharmaceutical compositions and uses thereof” (SHANGHAI INSTITUTE OF MATERIA MEDICA, CHINESE ACADEMY OF …, priority 2013, dated 2019).
Values after ≈ are worked out from the molar mass of the structure shown.

Legend:
HIV-1Ba-L virus strain [1] = assay: Inhibition of viral replication in HOS-CD4-CCR5 cells infected with HIV-1Ba-L; assay type: cell-based; conditions: Human immunodeficiency virus 1, HOS-CD4-CCR5
Method: (§1) On the day before the test, 1×10^5/ml of HOS-CD4-CCR5 cells were inoculated in 96-well plates with 100 μl for each well. The compound to be tested was subject to 5-fold dilution in 96-well microtiter plate with DMEM complete medium (containing 10% FBS). The starting concentration was 1 μM and six dilutions were obtained. Triplicate wells were set for each dilution and each well contained 100 μl mixture. While wells not containing drugs were set as control. The supernatant was removed and 100 μl of drug was added and incubated for 2 h. Then 100 μl of HIV-1SF162 and HIV-1Ba-L were added to dilute supernatant. The cells were infected for 1 h, free virus was washed out and drug with the same final concentration was added. MVC was used as positive control. The cells were cultured at 37° C. with 5% CO2 for three days. The supernatant was collected, lysed and inactivated with 0.5% Triton X-100. The inhibition effect of drug on HIV-1 replication was detected using p24 antigen capture ELISA method.

HIV-1KM018 virus strain = assay: Inhibition of viral replication in PBMC infected with HIV-1KM018; assay type: cell-based; conditions: Human immunodeficiency virus 1, PBMC
Method: (§2) The virus was titrated according to the modified method of Johnson & Byington. Briefly, the HIV-1 stock solution was subject to four-fold dilution in a 96-well plate (ten gradients) sextuplicate for each gradient, while setting six control-wells. Into each well was added 100 μl (5×10^6/ml) PHA-stimulated PBMC cells and final volume per well was 200 μl. The cells were cultured at 37° C. with 5% CO2. […] On the seventh day, the infected supernatant was collected and lysed with 0.5% Triton X100. The p24 antigen was detected by ELISA and TCID50 of virus was calculated according to Reed & Muench method (50% Tissue culture infection dose).
(§3) The starting concentration was 1 μM, six dilutions were obtained, and each well contained 200 μl mixture. While wells not containing drugs were set as control. […] After homogeneously mixed, the mixture was immediately added to 48-well plate containing diluted drug and each well was added with 200 μl of mixture. MVC was used as positive control. The cells were cultured at 37° C. with 5% CO2 for seven days (drug with the same concentration was added on the third day). The supernatant was collected, lysed and inactivated with 0.5% Triton X-100. The inhibition effect of drug on HIV-1 replication was detected using p24 antigen capture ELISA method.

HIV-1SF162 virus strain [2] = assay: Inhibition of viral replication in HOS-CD4-CCR5 cells infected with HIV-1SF162; assay type: cell-based; conditions: Human immunodeficiency virus 1, HOS-CD4-CCR5
Method: as §1

HIV-1Ba-L virus strain [3] = assay: Inhibition of viral replication in PBMC infected with HIV-1Ba-L; assay type: cell-based; conditions: Human immunodeficiency virus 1, PBMC
Method: The virus was titrated according to the modified method of Johnson & Byington. Briefly, the HIV-1 stock solution was subject to four-fold dilution in a 96-well plate (ten gradients) sextuplicate for each gradient, while setting six control-wells. Into each well was added 100 μl (5×10^6/ml) PHA-stimulated PBMC cells and final volume per well was 200 μl. The cells were cultured at 37° C. with 5% CO2. On the third day, 100 μl of fresh RPMI-1640 complete medium was supplemented. On the seventh day, the infected supernatant was collected and lysed with 0.5% Triton X100. The p24 antigen was detected by ELISA and TCID50 of virus was calculated according to Reed & Muench method (50% Tissue culture infection dose).
The compound to be tested was subject to 5-fold dilution in 48-well plate with RPMI-1640 complete medium (containing 10% FBS). The starting concentration was 1 μM, six dilutions were obtained, and each well contained 200 μl mixture. While wells not containing drugs were set as control. Virus (MOI=0.01) was added to 5×10^6/ml of PBMC cells which have been stimulated by PHA for 72 h. After homogeneously mixed, the mixture was immediately added to 48-well plate containing diluted drug and each well was added with 200 μl of mixture. MVC was used as positive control. The cells were cultured at 37° C. with 5% CO2 for seven days (drug with the same concentration was added on the third day). The supernatant was collected, lysed and inactivated with 0.5% Triton X-100. The inhibition effect of drug on HIV-1 replication was detected using p24 antigen capture ELISA method.

in vivo = conditions: male, rat
Method: The administration volume was 10 mL/kg and drug was formulated with DMSO/Tween 80/physiological saline (5:5:90, v/v/v). […] 2 h after dosing, the rats ate together.
At above time points, 0.3 ml of venous blood was taken from retrobulbar venous plexus of the rat and loaded into EDTA-2K anticoagulative tube. After centrifuged at 11000 rpm for 5 mm, the plasma was separated and frozen at −20° C. in a refrigerator.
The concentration of each compound in rat plasma was determined by LC/MS/MS.
The pharmacokinetic parameters after administration were calculated by using non-compartment model of WinNonlin 5.3 software (Pharsight Corporation, USA).

[4] = Cytotoxicity (CC50) in TZM-bl cells; assay type: cell-based; conditions: human; TZM-bl cells (Table 3); read-out: CC50
[5] = Toxicity test of compounds on HOS-CD4-CCR5 cells (MTT); assay type: cell-based; conditions: human; HOS-CD4+-CCR5 cells (Table 7)
Method: (§4) The compound to be tested was subject to 5-fold dilution in a 96-well microtiter plate with RPMI-1640 or DMEM complete medium (containing 10% FBS) (Six dilution) triplicate for each dilution and 100 μl for each well. While wells not containing drugs were set as control. Into each well was added 100 μl of 4×10^5/ml PM1, HOS-CD4-CCR5 cells or 100 μl of 5×10^6/ml PHA stimulated PBMC. The cells were cultured at 37° C. with 5% CO2 for three days (PBMC cells were cultured for seven days and 100 μl of fresh RPMI-1640 complete medium was supplemented on the third day). Cytotoxicity was tested with MTT assay. OD values were measured by ELx800 microplate reader. The detection wavelength was 570 nm, and the reference wavelength was 630 nm.

HIV-1SF162 virus strain [6] = assay: Inhibition activity on TZM-bl cells infected with HIV-1SF162
HIV-1SF162 virus strain [7] = assay: Inhibition of viral replication in PBMC infected with HIV-1SF162; assay type: cell-based; conditions: Human immunodeficiency virus 1, PBMC
Method: as §2, §3

[8] = Toxicity test of compounds on PBMC cells (MTT); assay type: cell-based; conditions: human; PBMC cells (Table 4)
Method: as §4

CYP1A2 = CYP1A2 (Homo sapiens (Human), UniProt P05177); assay: CYP450 inhibition activity assay (Vivid kit) CYP1A2; assay type: in vitro ADME; conditions: CYP450 subtype (μM) 1A2 (IC50)
Sequence of CYP1A2 (P05177 whole entry): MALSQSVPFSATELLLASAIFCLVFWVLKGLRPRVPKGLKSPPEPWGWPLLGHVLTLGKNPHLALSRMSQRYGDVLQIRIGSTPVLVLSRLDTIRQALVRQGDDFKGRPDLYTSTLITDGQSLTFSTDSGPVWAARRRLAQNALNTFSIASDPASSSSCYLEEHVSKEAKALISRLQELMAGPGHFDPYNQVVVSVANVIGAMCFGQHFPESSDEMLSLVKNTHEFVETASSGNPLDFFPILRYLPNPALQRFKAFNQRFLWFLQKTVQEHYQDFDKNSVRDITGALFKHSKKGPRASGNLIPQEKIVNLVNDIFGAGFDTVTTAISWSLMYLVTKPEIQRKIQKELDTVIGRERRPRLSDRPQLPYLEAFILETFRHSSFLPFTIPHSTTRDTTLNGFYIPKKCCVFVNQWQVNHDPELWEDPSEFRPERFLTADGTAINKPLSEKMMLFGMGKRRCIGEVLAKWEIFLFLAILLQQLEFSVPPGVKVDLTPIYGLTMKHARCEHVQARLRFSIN

Cc1nnc(C(C)C)n1C1CC2CCC(C1)N2CC[C@H](NC(=O)C1CCC(F)(F)CC1)c1ccsc1 (stereo partly drawn) [Compound 22, 4,4-difluoro-N-[(1S)-3-[exo-3-(3-isopropyl-5-methyl-4H-1,2,4-triazol-4-yl)-8-azabicyclo[3.2.1]octane-8-yl]-1-(thiophen-3-yl)propyl]cyclohexane-1-carboxamide] gave an EC50 (HIV-1Ba-L virus strain [1]) of 4.83 ng/mL (≈ 0.00929 µM), an EC50 (HIV-1KM018 virus strain) of 5.33 ng/mL (≈ 0.0103 µM) and an EC50 (HIV-1SF162 virus strain [2]) of 9.15 ng/mL (≈ 0.0176 µM). It also gave an EC50 (HIV-1Ba-L virus strain [3]) of 5.13 ng/mL (≈ 0.00987 µM), a bioavailability (in vivo) of 14.5% and an AUC(0-t) (in vivo; 10 mg/kg) of 4150 ng·h/mL. The AUC(0-inf) (in vivo; iv, 10 mg/kg) was 4160 ng·h/mL, the AUC(0-t) (in vivo; iv, 10 mg/kg) was 4150 ng·h/mL and the Cmax (in vivo; iv, 10 mg/kg) was 3780 ng/mL. For the same molecule, the MRT (in vivo; iv, 10 mg/kg) was 0.84 h, the Tmax (in vivo; iv, 10 mg/kg) was 0.25 h and the half-life (in vivo; iv, 10 mg/kg) was 1 h. The AUC(0-inf) (in vivo; po, 20 mg/kg) was 1260 ng·h/mL, the AUC(0-t) (in vivo; po, 20 mg/kg) was 1210 ng·h/mL and the Cmax (in vivo; po, 20 mg/kg) was 306 ng/mL. The MRT (in vivo; po, 20 mg/kg) was 2.55 h, the Tmax (in vivo; po, 20 mg/kg) was 2 h and the bioavailability (in vivo; po, 20 mg/kg) was 14.5%. For the same molecule, the half-life (in vivo; po, 20 mg/kg) was 1.55 h, the CC50 [4] was > 200000 ng/mL and the CC50 at 3 days [5] was > 800000 ng/mL. For the same molecule, the EC50 (HIV-1SF162 virus strain [6]; Human immunodeficiency virus 1, TZM-bl) was 1.53 ng/mL (≈ 0.00294 µM), the “therapeutic index (TI)” value (HIV-1SF162 virus strain [6]; TZM-bl cells infected with HIV-1SF162) was >130718.95 and the “cytotoxicity in vitro and therapeutic index in words, versus positive control compound” value (HIV-1SF162 virus strain [6]; TZM-bl cells infected with HIV-1SF162, conclusion from Table 3) was “better than positive control compound”. The EC50 (HIV-1SF162 virus strain [7]) was 2.65 ng/mL (≈ 0.0051 µM), the CC50 at 7 days [8] was 635000 ng/mL (≈ 1220 µM) and the IC50 (CYP1A2) was > 25 µM.
